Patent US9164053B2, “Electronic device for monitoring single molecule dynamics” (THE REGENTS OF THE UNIVERSITY OF CALIFORNIA, priority 2011, dated 2015)

What was measured:
lysozyme = target: T1, lysozyme (Enterobacteria phage T4, UniProt P00720, C54T/C97A/S90C); assay type: biochemical
T1 construct: made in house
Method: The single sensitizing molecule is a cysteine variant of T4 lysozyme which contains a single substituted cysteine as the mutation S90C to provide a reactive thiol for bio-conjugation. […] A 54 μM solution of the cysteine variant of T4 lysozyme in phosphate buffer (20 mM Na2HPO4, pH 7) is prepared. Devices dilutely coated with the linker molecule pyrene maleimide non-covalently attached to the SWNT were soaked in the lysozyme solution at room temperature for 60 minutes without agitation. Devices were then soaked in wash buffer (5 mM KCl, 10 mM Na2HPO4, 0.05% polysorbate 20, pH 7) for 30 minutes with shaking to remove unattached lysozyme. Devices were finally rinsed under flowing de-ionized water for 5 minutes.

[1] = target: T2, DNA polymerase 1 (Klenow Fragment, KF) (Escherichia coli, UniProt P00582, L790C); assay: DNA polymerase I (Klenow fragment) single molecule device, nucleotide incorporation; assay type: biochemical, E. Coli; conditions: for average ΔI signal amplitude of incorporation, rank among four bases: FIG. 16C; for turnover rate / τ hi / τ lo: homopolymer DNA substrate with complementary nucleotide
T2 construct: a cysteine variant of the Klenow fragment of DNA polymerase 1 (KF); made in house
Method: The linker molecule is pyrene maleimide, with the pyrene functional group non-covalently attached to the SWNT sidewall. The single sensitizing molecule is a cysteine variant of the Klenow fragment of DNA polymerase 1 (KF) derived from E. Coli, which contains a single inserted cysteine at site 790 to provide a reactive thiol for bio-conjugation. The cysteine variant of KF was synthesized by methods known in the art. A 0.2 mg/mL solution of the cysteine variant of KF in activation buffer (10 mM Tris-HCl, 10 mM MgCl2, 50 mM NaCl, 1 mM DTT, pH 7.9) is prepared. Devices dilutely coated with the linker molecule pyrene maleimide non-covalently attached to the SWNT were soaked in the KF solution at room temperature for 60 minutes without agitation. Devices were then soaked in wash buffer (10 mM Tris-HCl, 10 mM MgCl2, 50 mM NaCl, 0.1 mM TCEP, 0.1% polysorbate 20, pH 7.9) for 30 minutes with shaking to remove unattached KF. Devices were finally rinsed under flowing activation buffer for 5 minutes and stored in this solution until used. These conditions lead to a density of approximately one KF molecule per micrometer of exposed SWNT.
In the preferred embodiment of Example 3, the sensitizing molecule is DNA polymerase 1 (Klenow Fragment, KF), and the chemical environment is a 100 nM solution of deoxyribonucleic acid (DNA) template and 100 μM deoxyribonucleotide triphosphate (dNTP) in buffer (50 mM NaCl, 10 mM MgCl2, 20 mM Tris, 10 mM dithiothreitol, pH 7.8). As before, high (Ihi) and low (Ilo) current values are observed during chemical activity and monitored in time. […] Transient pulses to a smaller current Ilo occur in the presence of chemical activity, which in this system requires the simultaneous presence of DNA template, dNTP to be incorporated, and Mg^2+ ions. Electrical transitions from Ihi to Ilo indicate the incorporation of one nucleotide into the template and can be statistically analyzed in the same ways as described for lysozyme.
FIGS. 15A-15D illustrate the signals produced by this embodiment when measured in buffer with different combinations of substrate and nucleotides. FIGS. 15A and 15B show the response of a KF sensitizing molecule measured with at least 10 nM polyC substrate and an excess of dGTP on 1 second and 0.1 second time scales, respectively. In the latter graph, the timing and amplitude of individual events are clearly resolved. Each event represents the addition of the nucleotide dGTP to the polyC substrate. FIGS. 15C and 15D show the same device measured with at least 10 nM polyA substrate and an excess of dTTP on identical time scales. On average, the individual events in FIG. 15D have shorter durations and higher amplitudes than the events in FIG. 15B. When either substrate or nucleotides are absent in these measurements, no transitions to Ilo are observed. Again, with reference to FIG. 15D, each event (dip in measured current) represents the addition of the nucleotide dTTP to the poly A substrate.
The device is capable of distinguishing all four types of base incorporation, and allows large numbers of individual events to be analyzed statistically. FIGS. 16A-16C illustrates typical types of analysis performed on data generated by a single KF protein in the presence of different combinations of DNA substrates and nucleotides. FIG. 16A plots the single-molecule probability distributions for the Ihi states of all four bases A, C, G, and T. Fits to each distribution are shown as solid lines and determine the mean value of τhi for each base pair. FIG. 16B plots the distributions for the four Ilo states and gives the values of τlo. The values of τhi are much longer than τlo and therefore they determine the overall turnover rate of the KF protein for a particular type of base. The data distinguish dGTP and dCTP as having shorter incorporation times and faster turnover rates than either dTTP or dATP. […]

[2] = single molecule sensing device, lysozyme processing peptidoglycan (current fluctuations); assay type: biochemical
Method: The linker molecule is pyrene maleimide, with the pyrene functional group non-covalently attached to the SWNT sidewall. The single sensitizing molecule is a cysteine variant of T4 lysozyme which contains a single substituted cysteine as the mutation S90C to provide a reactive thiol for bio-conjugation. The cysteine variant of T4 lysozyme was synthesized by methods known in the art. A 54 μM solution of the cysteine variant of T4 lysozyme in phosphate buffer (20 mM Na2HPO4, pH 7) is prepared. Devices dilutely coated with the linker molecule pyrene maleimide non-covalently attached to the SWNT were soaked in the lysozyme solution at room temperature for 60 minutes without agitation. Devices were then soaked in wash buffer (5 mM KCl, 10 mM Na2HPO4, 0.05% polysorbate 20, pH 7) for 30 minutes with shaking to remove unattached lysozyme. Devices were finally rinsed under flowing de-ionized water for 5 minutes. These conditions lead to a density of approximately one T4 lysozyme molecule per micrometer of exposed SWNT.
The fully fabricated device is used by submerging the device in a gaseous or liquid environment. Temperature of the environment should be controlled and held constant and, in the case of liquids, so should the pH and electrochemical potential. An electrical bias is created and held constant between the source and the drain electrode. The current between the source, and the drain is measured over time and collected as control data points. The device is then exposed to a different chemical environment, and the levels of the current between the source and the drain is measured over time collected as experimental data points.
In the embodiment of Example 2, the sensitizing molecule was lysozyme, and the chemical environment is 25 μg/ml peptidoglycan substrate in PBS buffer. The high (Ihi) and the low current values (Ilo) after the device is exposed to the peptidoglycan are measured over time. The parameters of the relative difference ΔI=(Ihi−Ilo)/Ilo are statistically analyzed, and have been determined to be the most reliable way to analyze the conformational changes in the sensitizing molecule. […] Ihi, on the other hand, is substantially larger and is assigned to the mechanically-closed conformation of lysozyme around a bound peptidoglycan molecule. Electrical transitions from Ilo to Ihi indicate the hinge-like closure of lysozyme as it attempts to catalytically cleave a glycosidic bond of the peptidoglycan.
In the more preferred embodiment, oscillations in the electrical current between Ilo and Ihi occur with a broad distribution of stochastic durations that mirror the enzyme's activity. Sequences of ten or more oscillations can be categorized into one of two activity types, one slow and one fast. The slow oscillation corresponds to productive enzyme activity where the enzyme is successfully cleaving bonds of the peptidoglycan. […] The amplitude of the signal ΔI is nearly the same in both slow and fast oscillations and is measured to be nearly constant, which supports a conclusion that the same range of molecular motion is being measured for both types of activity. This concurs with data from FRET which has previously proven that the range of mechanical motion in lysozyme is the same for both types of activity.
FIG. 2A illustrates an extended sequence of current fluctuation over 30 seconds, with the mean value highlighted using the setup of Example 2. […] The fast oscillations occur on average 300 times per second. The slow oscillations occur on average 15 times per second. The exact rate of either oscillation varies from one conformation to another, so that long-duration measurements observe the conversion of the enzyme to different possible rates. In different minutes of measurement, the same protein can undergo slow oscillations varying from 10 to 80 times per second.
FIG. 4 summarizes the data with mean values of τlo and τhi. Another figure of merit for each parameter is the statistical variance. […]

T2 sequence (P00582 324-928 L790C): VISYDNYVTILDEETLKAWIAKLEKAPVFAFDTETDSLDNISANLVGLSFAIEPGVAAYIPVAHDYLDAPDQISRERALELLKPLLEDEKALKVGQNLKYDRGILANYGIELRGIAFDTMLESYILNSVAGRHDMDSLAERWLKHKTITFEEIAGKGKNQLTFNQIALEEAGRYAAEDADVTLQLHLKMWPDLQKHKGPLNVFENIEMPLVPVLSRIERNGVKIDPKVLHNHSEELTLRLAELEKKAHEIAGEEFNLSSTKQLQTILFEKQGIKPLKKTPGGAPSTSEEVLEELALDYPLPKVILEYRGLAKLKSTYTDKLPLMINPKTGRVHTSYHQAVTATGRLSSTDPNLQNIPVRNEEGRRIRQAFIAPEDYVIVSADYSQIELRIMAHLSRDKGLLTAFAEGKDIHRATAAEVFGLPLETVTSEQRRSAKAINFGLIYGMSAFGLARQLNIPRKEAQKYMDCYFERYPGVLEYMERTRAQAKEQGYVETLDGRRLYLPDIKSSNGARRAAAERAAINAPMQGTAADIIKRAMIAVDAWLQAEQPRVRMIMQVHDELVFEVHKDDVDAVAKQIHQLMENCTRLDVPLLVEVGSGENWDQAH

With `O=C(O)CCc1c[nH]c2ccccc12` [I3P, indole-3-propionic acid] the “pulse amplitude ΔI” value (lysozyme; 10 mM I3P) was “+20%”, the “pulse duration τhi” value (lysozyme; 10 mM I3P) was < 1 ms and the “interactions with inhibitor in electronic I(t) signals” value (lysozyme; weakly-interacting, non-covalent inhibitors) was “clearly observed”.
In the case of `Nc1ncnc2c1ncn2[C@H]1C[C@H](O)[C@@H](COP(=O)(O)OP(=O)(O)OP(=O)(O)O)O1` [dATP], the “average ΔI signal amplitude of incorporation, rank among four bases” value [1] is reported as “largest”, the turnover rate [1] is reported as 14.4 ± 2.9 s⁻¹ and the τ hi [1] is reported as 71.4 ± 14.3 ms. For the same compound, the τ lo [1] was 0.33 ± 0.08 ms.
Work on `Nc1ccn([C@H]2C[C@H](O)[C@@H](COP(=O)(O)OP(=O)(O)OP(=O)(O)O)O2)c(=O)n1` [dCTP] yielded a turnover rate [1] of 26.2 ± 4.4 s⁻¹, a τ hi [1] of 39.0 ± 5.6 ms and a τ lo [1] of 0.32 ± 0.07 ms.
With `Nc1nc2c(ncn2[C@H]2C[C@H](O)[C@@H](COP(=O)(O)OP(=O)(O)OP(=O)(O)O)O2)c(=O)[nH]1` [dGTP] the “average ΔI signal amplitude of incorporation, rank among four bases” value [1] was “smallest”, the turnover rate [1] was 28.5 ± 3.5 s⁻¹ and the τ hi [1] was 38.0 ± 5.8 ms. It also gave a τ lo [1] of 0.33 ± 0.06 ms.
In the case of `Cc1cn([C@H]2C[C@H](O)[C@@H](COP(=O)(O)OP(=O)(O)OP(=O)(O)O)O2)c(=O)[nH]c1=O` [dTTP], the turnover rate [1] is reported as 16.0 ± 2.9 s⁻¹, the τ hi [1] is reported as 63.7 ± 11.4 ms and the τ lo [1] is reported as 0.42 ± 0.09 ms.
In the case of lysozyme, the normalized variance rhi ([2]; Nonproductive (fast), pH 5) is reported as 0.48 ± 0.10, the normalized variance rlo ([2]; Nonproductive (fast), pH 5) is reported as 0.97 ± 0.13 and the normalized variance rhi ([2]; Nonproductive (fast), pH 7) is reported as 0.43 ± 0.06. The normalized variance rlo ([2]; Nonproductive (fast), pH 7) was 0.99 ± 0.09, the normalized variance rhi ([2]; Nonproductive (fast), pH 11) was 0.61 ± 0.08 and the normalized variance rlo ([2]; Nonproductive (fast), pH 11) was 1.00 ± 0.10. For the same compound, the normalized variance rhi ([2]; Processing (slow), pH 5) was 0.68 ± 0.15, the normalized variance rlo ([2]; Processing (slow), pH 5) was 1.00 ± 0.18 and the normalized variance rhi ([2]; Processing (slow), pH 7) was 0.74 ± 0.12. The normalized variance rlo ([2]; Processing (slow), pH 7) was 1.06 ± 0.15, the normalized variance rhi ([2]; Processing (slow), pH 11) was 0.60 ± 0.15 and the normalized variance rlo ([2]; Processing (slow), pH 11) was 1.11 ± 0.23. For the same compound, the “slow oscillations, average rate” value ([2]; catalytic processing, 25 μg/ml peptidoglycan in PBS) was 15 times per second, the time spent processing ([2]; linear peptidoglycan substrate without crosslinks) was 88% and the “fast oscillations, average rate” value ([2]; nonproductive binding, 25 μg/ml peptidoglycan in PBS) was 300 times per second. The time spent processing ([2]; peptidoglycan substrate containing crosslinks) was 51%.
